Test system: streptozocin (STZ)-induced type I diabetes model of neuropathic pain
Test: streptozocin (STZ)-induced type I diabetes model of neuropathic pain (von Frey mechanical withdrawal threshold)
Type: in vivo
Conditions: rats, 10 mpk, as compared to 10 mpk of celecoxib; average of 6 rats (FIG. 3)
Description: Diabetic neuropathic pain was modeled using streptozocin which targets and kills the pancreatic beta islet cells rendering the animals with type I diabetes. The rats were acclimated for one hour and tested for baseline thresholds before inducing diabetes. The baseline mechanical withdrawal thresholds were established using the von Frey mechanical nociceptive test with an electronic anesthesiometer (IITC, Woodland Hills, Calif.). Subsequently, streptozocin (55 mg/kg) in saline was injected via tail vein per previously reported methods (Aley, K. O. and Levine J. D. J. Pain 2001, 2, 146.). After five days the allodynia of diabetic rats was confirmed with the von Frey nociceptive assay. Rats were placed in clear acrylic chambers on a steel mesh floor. The hind paw of the rat was probed through the mesh with a rigid tip probe connected to the electronic readout pressure meter set to the maximum hold setting. The withdrawal thresholds per rat were measured 3-5 times at 1 minute intervals for each time point.
The baseline diabetic allodynia was quantified again at the beginning of all test days. The rats were then administered vehicle or sEH inhibitor via oral gavage and tested at 30 min. 1, 2, 3, 4, 5, and 6 h for mechanical withdrawal thresholds. […]

CC(=O)N1CCC(NC(=O)NC23CC4CC(CC(C4)C2)C3)CC1 [UC1153]
pain response (% of baseline; below 60% of baseline is painful state, 100% is lack of enhanced pain detection): significantly alleviate the pain response

Source: patent publication US9850207B2, “Substituted piperidines as soluble epdxide hydrolase inhibitors” (The Regents of the University of California, priority 2012, dated 2017)
